Measured values: patent publication US11564928B1, “Cannabinoid receptor type 2 (CB2) modulators and uses thereof” (Teon Therapeutics, Inc., priority 2020, dated 2023)
Like-named read-outs stand apart in the source and are kept apart here.

Legend:
human CB2 receptor [1] = biological target: T1, human CB2 receptor (Homo sapiens (Human), UniProt P34972); experiment: CB2 receptor cAMP assay (DiscoverX HitHunter cAMP XS+); format: cell-based
Description: cAMP Hunter CHO-K-1 cell lines expressing human CB2 receptor (Eurofins) were expanded from freezer stocks according to standard procedures. Cells were seeded in a total volume of 20 μL into white walled, 384-well microplates and incubated at 37° C. for the appropriate time prior to testing. cAMP modulation in agonist, inverse agonist or antagonist format was determined using the DiscoverX HitHunter cAMP XS+ assay (Eurofins). For agonist determination, cells were incubated with sample in the presence of EC80 forskolin to induce response. Media was aspirated from cells and replaced with 15 μL 2:1 HBSS/10 mM Hepes: cAMP XS+Ab reagent. Intermediate dilution of sample stocks was performed to generate 4× sample in assay buffer containing 4× EC80 forskolin. 5 μL of 4× sample was added to cells and incubated at 37° C. or room temperature for 30 or 60 minutes. Final assay vehicle concentration was 1%. For inverse agonist determination, cells were preincubated with sample in the presence of EC20 forskolin. Media was aspirated from cells and replaced with 15 μL, 2:1 HBSS/10 mM Hepes: cAMP XS+Ab reagent. Intermediate dilution of sample stocks was performed to generate 4× sample in assay buffer containing 4× EC20 forskolin. 5 μL of 4× sample was added to cells and incubated at 37° C. or room temperature for 30 or 60 minutes. Final assay vehicle concentration was 1%. For antagonist determination, cells were pre-incubated with sample followed by agonist challenge at the EC80 concentration. Media was aspirated from cells and replaced with 10 μL 1:1 HBSS/Hepes: cAMP XS+Ab reagent. 5 μL of 4× compound was added to the cells and incubated at 37° C. or room temperature for 30 minutes. 5 μL of 4× EC80 agonist was added to cells and incubated at 37° C. or room temperature for 30 or 60 minutes. EC80 forksolin was included. After appropriate compound incubation, assay signal was generated through incubation with 20 μL cAMP XS+ED/CL lysis cocktail for one hour followed by incubation with 20 μL, cAMP XS+EA reagent for three hours at room temperature. Microplates were read following signal generation with a PerkinElmer Envision instrument for chemiluminescent signal detection. Compound activity was analyzed using CBIS data analysis suite (ChemInnovation, CA). For agonist mode assay, percentage activity is calculated using the following formula: % Activity=100%×(1−(mean RLU of test sample−mean RLU of MAX control)/(mean RLU of vehicle control−mean RLU of MAX control)). For inverse agonist mode assay, percentage activity is calculated using the following formula: % Inverse Agonist Activity=100%×((mean RLU of test sample−mean RLU of EC20 forskolin)/(mean RLU of forskolin positive control−mean RLU of EC20 control)). For antagonist mode assay, percentage inhibition is calculated using the following formula: % Inhibition=100%×(mean RLU of test sample−mean RLU of EC80 control)/(mean RLU of forskolin positive control−mean RLU of EC80 control). Data are analyzed and IC50 is calculated using GraphPad Prism 5 and the model “log(inhibitor) vs. response—Variable slope”.

human recombinant CB1R = human recombinant CB1R (Homo sapiens (Human), UniProt P21554); experiment: CB1 receptor binding assay ([3H]CP-55,940 displacement, HEK-293 membranes); details: membranes of HEK-293 cells with human recombinant CB1R, [3H]CP-55,940, read-out: CB1 IC50
Outline: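 Displacement of [3H]CP-55,940 was measured on human CB1R- or CB2R-transfected HEK-293 membranes after 120 min at 37 °C, in duplicate, with filtration and scintillation counting. For CB2R, incubation used Tris-HCl 50 mM, MgCl2 5 mM, CaCl2 1 mM, BSA 0.2%, pH 7.4. Ki values were derived from variable-slope IC50 fits using Cheng–Prusoff.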

human CB2 receptor [2] = biological target: T1, human CB2 receptor; experiment: CB2 receptor binding assay ([3H]CP-55,940 displacement, HEK-293 membranes); details: membranes of HEK-293 cells with human recombinant CB2R, [3H]CP-55,940, read-out: CB2 IC50
[3] = CHO-K1, read-out: Max Stimulation %
[4] = cAMP Hunter CHO-K-1 cells expressing human CB2 receptor, read-out: cAMP IC50

T1 sequence (P34972 whole entry): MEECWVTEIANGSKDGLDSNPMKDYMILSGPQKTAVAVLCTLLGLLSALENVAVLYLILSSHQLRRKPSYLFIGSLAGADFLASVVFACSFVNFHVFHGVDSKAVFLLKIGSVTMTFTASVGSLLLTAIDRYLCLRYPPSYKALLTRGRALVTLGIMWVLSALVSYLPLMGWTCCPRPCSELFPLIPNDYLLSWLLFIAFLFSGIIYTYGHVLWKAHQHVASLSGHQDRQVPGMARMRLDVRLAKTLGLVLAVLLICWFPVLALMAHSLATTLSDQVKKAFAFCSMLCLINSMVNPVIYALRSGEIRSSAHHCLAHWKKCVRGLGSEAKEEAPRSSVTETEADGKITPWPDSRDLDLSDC
Sequence of human recombinant CB1R (P21554 whole entry): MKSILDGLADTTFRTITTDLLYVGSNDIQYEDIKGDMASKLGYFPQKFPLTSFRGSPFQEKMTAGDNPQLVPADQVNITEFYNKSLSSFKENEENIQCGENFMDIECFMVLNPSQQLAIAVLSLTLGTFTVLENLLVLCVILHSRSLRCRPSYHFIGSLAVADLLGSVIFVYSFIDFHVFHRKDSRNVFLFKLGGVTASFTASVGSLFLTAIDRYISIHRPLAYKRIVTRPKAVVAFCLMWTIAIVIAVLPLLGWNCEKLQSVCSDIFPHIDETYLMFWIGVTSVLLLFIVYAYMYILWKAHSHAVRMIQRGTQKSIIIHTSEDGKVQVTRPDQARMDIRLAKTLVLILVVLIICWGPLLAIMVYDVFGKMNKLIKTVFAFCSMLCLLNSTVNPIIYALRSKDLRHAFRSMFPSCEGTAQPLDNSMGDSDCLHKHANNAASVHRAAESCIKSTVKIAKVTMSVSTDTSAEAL

Q: What does the source list for `COc1ccc(-c2cnc3c(c2)cc(C(=O)NC2CC4(CCC4)C2)c(=O)n3CCN2CCOCC2)cc1` [Compound 29, 6-(4-methoxyphenyl)-1-(2-morpholinoethyl)-2-oxo-N-(spiro[3.3]heptan-2-yl)-1,2-dihydro-1,8-naphthyridine-3-carboxamide]?
A: IC50 (human CB2 receptor [1]): 5 nM; Emax (human CB2 receptor [1]; [3]): 107%; IC50 (human recombinant CB1R): > 10000 nM; IC50 (human CB2 receptor [2]): 1.2 nM

Q: With `O=C(NC12CC(C1)C2)c1cc2cc(C3CC3)cnc2n(Cc2ccc(F)cc2)c1=O` [Compound 83, N-(bicyclo[1.1.1]pentan-1-yl)-6-cyclopropyl-1-(4-fluorobenzyl)-2-oxo-1,2-dihydro-1,8-naphthyridine-3-carboxamide] as the compound, how does the IC50 (human CB2 receptor [1]) read?
A: 5 nM

Q: What about the Emax (human CB2 receptor [1]; [3]) of the same compound?
A: 93%

Q: And the IC50 (human recombinant CB1R; class symbols)?
A: > 1000 nM

Q: What about the IC50 (human CB2 receptor [2]; class symbols) of the same compound?
A: < 100 nM

Q: With `N#Cc1ccc(-c2cnc3c(c2)cc(C(=O)NC2CC4(CCC4)C2)c(=O)n3Cc2ccc(F)cc2)nc1` [Compound 69, 6-(5-cyanopyridin-2-yl)-1-(4-fluorobenzyl)-2-oxo-N-(spiro[3.3]heptan-2-yl)-1,2-dihydro-1,8-naphthyridine-3-carboxamide] as the compound, how does the IC50 (human CB2 receptor [1]) read?
A: 21 nM

Q: And the Emax (human CB2 receptor [1]; [3])?
A: 79%

Q: And the IC50 (human recombinant CB1R; class symbols)?
A: > 1000 nM

Q: What about the IC50 (human CB2 receptor [2]; class symbols) of the same compound?
A: < 100 nM

Q: What does the source list for `CC(C)c1cnc2c(c1)cc(C(=O)N[C@H](C)c1ccc(F)cc1)c(=O)n2Cc1ccc(F)cc1` [Compound 89, (R)-1-(4-fluorobenzyl)-N-(1-(4-fluorophenyl)ethyl)-6-isopropyl-2-oxo-1,2-dihydro-1,8-naphthyridine-3-carboxamide]?
A: IC50 (human CB2 receptor [1]): 7 nM; Emax (human CB2 receptor [1]; [3]): 92%; IC50 (human recombinant CB1R; class symbols): > 1000 nM; IC50 (human CB2 receptor [2]; class symbols): < 100 nM

Q: With `CC(NC(=O)c1cc2cc(-c3ccc(OC(F)F)cn3)cnc2n(CCN2CCOCC2)c1=O)c1ccc(F)cc1` (stereo not drawn) [Compound 55, 6-(5-(difluoromethoxy)pyridin-2-yl)-N-(1-(4-fluorophenyl)ethyl)-1-(2-morpholinoethyl)-2-oxo-1,2-dihydro-1,8-naphthyridine-3-carboxamide] as the compound, how does the Emax (human CB2 receptor [1]; CHO-K1, cAMP Hunter CHO-K-1 cells expressing human CB2 receptor, read-out: Max Stimulation %) read?
A: 84%

Q: And the IC50 (human CB2 receptor [1]; [4])?
A: 11 nM

Q: And the IC50 (human recombinant CB1R)?
A: 2940 nM

Q: And the IC50 (human CB2 receptor [2])?
A: 0.6 nM

Q: With `O=C(NC1CC2(CCC2)C1)c1cc2cc(C3COC3)cnc2n(Cc2ccc(F)cc2)c1=O` [Compound 102, 1-(4-fluorobenzyl)-6-(oxetan-3-yl)-2-oxo-N-(spiro[3.3]heptan-2-yl)-1,2-dihydro-1,8-naphthyridine-3-carboxamide] as the compound, how does the IC50 (human CB2 receptor [1]) read?
A: 3 nM

Q: What about the Emax (human CB2 receptor [1]; [3]) of the same compound?
A: 79%

Q: What about the IC50 (human recombinant CB1R) of the same compound?
A: 1610 nM

Q: What about the IC50 (human CB2 receptor [2]) of the same compound?
A: 2.3 nM

Q: `CC(C)c1cnc2c(c1)cc(C(=O)N[C@H](C)c1ccc(F)cc1)c(=O)n2Cc1ccc(F)cn1` [Compound 100, (R)—N-(1-(4-fluorophenyl)ethyl)-1-((5-fluoropyridin-2-yl)methyl)-6-isopropyl-2-oxo-1,2-dihydro-1,8-naphthyridine-3-carboxamide] was tested. Which IC50 (human CB2 receptor [1]) did it give?
A: 2 nM

Q: And the Emax (human CB2 receptor [1]; [3])?
A: 82%

Q: And the IC50 (human recombinant CB1R)?
A: 2880 nM

Q: And the IC50 (human CB2 receptor [2])?
A: 4 nM

Q: How did the IC50 (human CB2 receptor [1]) turn out when `COc1ccc(-c2cnc3c(c2)c(O)c(C(=O)NC2CC4(CCC4)C2)c(=O)n3CCN2CCOCC2)cc1` [Compound 10, 4-hydroxy-6-(4-methoxyphenyl)-1-(2-morpholinoethyl)-2-oxo-N-(spiro[3.3]heptan-2-yl)-1,2-dihydro-1,8-naphthyridine-3-carboxamide] was run?
A: 7 nM

Q: And the Emax (human CB2 receptor [1]; [3])?
A: 82%

Q: And the IC50 (human recombinant CB1R)?
A: > 10000 nM

Q: What about the IC50 (human CB2 receptor [2]) of the same compound?
A: 7 nM

Q: What does the source list for `C[C@@H](NC(=O)c1cc2cc(C3COC3)cnc2n(Cc2ccc(F)cc2)c1=O)c1ccc(C#N)cc1` [Compound 101, (R)—N-(1-(4-cyanophenyl)ethyl)-1-(4-fluorobenzyl)-6-(oxetan-3-yl)-2-oxo-1,2-dihydro-1,8-naphthyridine-3-carboxamide]?
A: IC50 (human CB2 receptor [1]): 21 nM; Emax (human CB2 receptor [1]; [3]): 71%; IC50 (human recombinant CB1R): 2110 nM; IC50 (human CB2 receptor [2]): 7.6 nM

Q: Which IC50 (human CB2 receptor [1]; [4]) does the source give for `N#Cc1ccc(-c2cnc3c(c2)cc(C(=O)NC2CC4(CCC4)C2)c(=O)n3CCN2CCOCC2)cc1` [Compound 44, 6-(4-cyanophenyl)-1-(2-morpholinoethyl)-2-oxo-N-(spiro[3.3]heptan-2-yl)-1,2-dihydro-1,8-naphthyridine-3-carboxamide] here?
A: > 1000 nM

Q: And the IC50 (human recombinant CB1R)?
A: 6080 nM

Q: And the IC50 (human CB2 receptor [2])?
A: 7.2 nM

Q: `O=C(NC1CC2(CCC2)C1)c1cc2cc(-c3ccc4c(c3)OCCO4)cnc2n(CCN2CCOCC2)c1=O` [Compound 33, 6-(2,3-dihydrobenzo[b][1,4]dioxin-6-yl)-1-(2-morpholinoethyl)-2-oxo-N-(spiro[3.3]heptan-2-yl)-1,2-dihydro-1,8-naphthyridine-3-carboxamide] was tested. Which IC50 (human CB2 receptor [1]) did it give?
A: 6 nM

Q: What about the IC50 (human recombinant CB1R) of the same compound?
A: > 10000 nM

Q: What about the IC50 (human CB2 receptor [2]) of the same compound?
A: 4 nM

Q: With `O=C(NC12CC(C1)C2)c1cc2cc(Br)cnc2n(Cc2ccc(F)cc2)c1=O` [Compound 82, N-(bicyclo[1.1.1]pentan-1-yl)-6-bromo-1-(4-fluorobenzyl)-2-oxo-1,2-dihydro-1,8-naphthyridine-3-carboxamide] as the compound, how does the IC50 (human CB2 receptor [1]) read?
A: 1 nM

Q: What about the Emax (human CB2 receptor [1]; [3]) of the same compound?
A: 86%

Q: And the IC50 (human recombinant CB1R; class symbols)?
A: > 1000 nM

Q: And the IC50 (human CB2 receptor [2]; class symbols)?
A: < 100 nM

Q: What does the source list for `CC(C)(NC(=O)c1cc2cc(-c3ccc(C#N)cn3)cnc2n(CCN2CCOCC2)c1=O)c1ccc(F)cc1` [Compound 40, 6-(5-cyanopyridin-2-yl)-N-(2-(4-fluorophenyl)propan-2-yl)-1-(2-morpholinoethyl)-2-oxo-1,2-dihydro-1,8-naphthyridine-3-carboxamide]?
A: IC50 (human CB2 receptor [1]): 10 nM; Emax (human CB2 receptor [1]; [3]): 74%; IC50 (human recombinant CB1R): > 10000 nM; IC50 (human CB2 receptor [2]): 7 nM

Q: With `O=C(NC1CC2(CCC2)C1)c1cc2cc(Br)cnc2n(Cc2ccc(F)cn2)c1=O` [Compound 99, 6-bromo-1-((5-fluoropyridin-2-yl)methyl)-2-oxo-N-(spiro[3.3]heptan-2-yl)-1,2-dihydro-1,8-naphthyridine-3-carboxamide] as the compound, how does the IC50 (human CB2 receptor [1]) read?
A: 53 nM

Q: What about the Emax (human CB2 receptor [1]; [3]) of the same compound?
A: 89%

Q: What about the IC50 (human recombinant CB1R) of the same compound?
A: > 10000 nM

Q: What about the IC50 (human CB2 receptor [2]) of the same compound?
A: 12 nM

Q: `CC(C)c1cnc2c(c1)cc(C(=O)N[C@H](C)c1ccc(C#N)cc1)c(=O)n2Cc1ccc(F)cc1` [Compound 85, (R)—N-(1-(4-cyanophenyl)ethyl)-1-(4-fluorobenzyl)-6-isopropyl-2-oxo-1,2-dihydro-1,8-naphthyridine-3-carboxamide] was tested. Which IC50 (human CB2 receptor [1]) did it give?
A: 0.5 nM

Q: And the Emax (human CB2 receptor [1]; [3])?
A: 93%

Q: And the IC50 (human recombinant CB1R)?
A: 605 nM

Q: What about the IC50 (human CB2 receptor [2]) of the same compound?
A: 7.9 nM

Q: How did the IC50 (human CB2 receptor [1]) turn out when `CC1CCC(NC(=O)c2cc3cc(-c4ccc(OC(F)F)cc4)cnc3n(CCN3CCOCC3)c2=O)CC1` (stereo not drawn) [Compound 51, 6-(4-(difluoromethoxy)phenyl)-N-(4-methylcyclohexyl)-1-(2-morpholinoethyl)-2-oxo-1,2-dihydro-1,8-naphthyridine-3-carboxamide] was run?
A: 2 nM

Q: What about the Emax (human CB2 receptor [1]; [3]) of the same compound?
A: 108%

Q: And the IC50 (human recombinant CB1R)?
A: > 10000 nM

Q: What about the IC50 (human CB2 receptor [2]) of the same compound?
A: 2.1 nM

Q: With `CC1CCC(NC(=O)c2cc3cc(-c4ncccn4)cnc3n(CCN3CCOCC3)c2=O)CC1` (stereo not drawn) [Compound 63, N-(4-methylcyclohexyl)-1-(2-morpholinoethyl)-2-oxo-6-(pyrimidin-2-yl)-1,2-dihydro-1,8-naphthyridine-3-carboxamide] as the compound, how does the IC50 (human CB2 receptor [1]; [4]) read?
A: > 1000 nM

Q: And the IC50 (human recombinant CB1R; class symbols)?
A: > 1000 nM

Q: And the IC50 (human CB2 receptor [2]; class symbols)?
A: < 100 nM

Q: `O=C(NC12CC(C1)C2)c1c(O)c2cc(-c3ccc(F)cc3)cnc2n(CCN2CCOCC2)c1=O` [Compound 8, N-(bicyclo[1.1.1]pentan-1-yl)-6-(4-fluorophenyl)-4-hydroxy-1-(2-morpholinoethyl)-2-oxo-1,2-dihydro-1,8-naphthyridine-3-carboxamide] was tested. Which IC50 (human CB2 receptor [1]) did it give?
A: 40 nM

Q: And the Emax (human CB2 receptor [1]; [3])?
A: 32%

Q: What about the IC50 (human recombinant CB1R) of the same compound?
A: > 10000 nM

Q: What about the IC50 (human CB2 receptor [2]) of the same compound?
A: 20 nM
